Where two headings read alike, the source gives them in different places.
What was measured:
[1] = target: T1, Human recombinant PDE2A (hPDE2A) (Homo sapiens, UniProt O00408); assay: In vitro assay PDE2A (SPA, 3H-cGMP); assay type: biochemical
T1 construct: made in house; host or cells: Sf9 insect cells (baculovirus)

[2] = target: T2, Rat recombinant PDE10A (rPDE10A2) (Rattus norvegicus, UniProt Q9QYJ6); assay: In vitro assay PDE10A (SPA, 3H-cAMP); assay type: biochemical
T2 construct: made in house; host or cells: Sf9 insect cells (baculovirus)
T2 sequence (Q9QYJ6 1-794): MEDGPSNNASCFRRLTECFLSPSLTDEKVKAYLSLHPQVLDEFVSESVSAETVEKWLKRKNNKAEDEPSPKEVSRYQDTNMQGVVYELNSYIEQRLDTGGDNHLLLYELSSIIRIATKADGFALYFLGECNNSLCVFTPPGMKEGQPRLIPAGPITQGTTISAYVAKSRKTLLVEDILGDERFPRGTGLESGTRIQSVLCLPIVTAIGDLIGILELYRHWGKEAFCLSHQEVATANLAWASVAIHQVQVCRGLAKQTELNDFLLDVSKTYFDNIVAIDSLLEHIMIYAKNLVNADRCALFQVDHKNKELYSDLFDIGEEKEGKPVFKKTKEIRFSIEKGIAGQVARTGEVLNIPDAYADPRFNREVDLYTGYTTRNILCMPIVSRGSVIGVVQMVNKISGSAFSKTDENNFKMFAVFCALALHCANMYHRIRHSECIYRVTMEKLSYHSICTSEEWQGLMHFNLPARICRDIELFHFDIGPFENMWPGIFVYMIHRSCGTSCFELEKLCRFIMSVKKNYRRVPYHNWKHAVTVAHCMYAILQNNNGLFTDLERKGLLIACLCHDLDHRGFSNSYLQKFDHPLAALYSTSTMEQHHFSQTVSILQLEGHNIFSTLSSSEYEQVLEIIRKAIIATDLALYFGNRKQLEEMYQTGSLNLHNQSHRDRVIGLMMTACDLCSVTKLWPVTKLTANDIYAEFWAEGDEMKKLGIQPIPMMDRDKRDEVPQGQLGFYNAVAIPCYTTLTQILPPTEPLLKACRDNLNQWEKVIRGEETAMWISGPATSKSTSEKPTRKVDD

[3] = test system: Apomorphine-induced agitation; assay: Reversal of Apomorphine-induced Agitation in Rats (APO); assay type: in vivo, rat; settings: for PO Max effect (cumulative agitation score over 60 min) / SC Max effect (cumulative agitation score over 60 min): apomorphine 1.0 mg/kg i.v.; for PO LAD (lowest active dose) / SC LAD (lowest active dose): lowest dose at which ≥67% tested animals respond; for SC Dose at max effect / SC Max effect (cumulative agitation score over 60 min) / SC LAD (lowest active dose): subcutaneous route
Protocol: Apomorphine (1.0 mg/kg, i.v.)-induced agitation was scored every 5 min over the first hour after injection of apomorphine. The score system was: (3) pronounced, (2) moderate, (1) slight, and (0) absent. […] For the present purpose, the cumulative agitation score over the whole 60-min observation period was used as a measure to describe the maximum effect (Max effect).

[4] = read-out: pIC50 PDE2 (converted)
[5] = read-out: PIC50 PDE10 (converted)

T1 sequence (O00408 whole entry): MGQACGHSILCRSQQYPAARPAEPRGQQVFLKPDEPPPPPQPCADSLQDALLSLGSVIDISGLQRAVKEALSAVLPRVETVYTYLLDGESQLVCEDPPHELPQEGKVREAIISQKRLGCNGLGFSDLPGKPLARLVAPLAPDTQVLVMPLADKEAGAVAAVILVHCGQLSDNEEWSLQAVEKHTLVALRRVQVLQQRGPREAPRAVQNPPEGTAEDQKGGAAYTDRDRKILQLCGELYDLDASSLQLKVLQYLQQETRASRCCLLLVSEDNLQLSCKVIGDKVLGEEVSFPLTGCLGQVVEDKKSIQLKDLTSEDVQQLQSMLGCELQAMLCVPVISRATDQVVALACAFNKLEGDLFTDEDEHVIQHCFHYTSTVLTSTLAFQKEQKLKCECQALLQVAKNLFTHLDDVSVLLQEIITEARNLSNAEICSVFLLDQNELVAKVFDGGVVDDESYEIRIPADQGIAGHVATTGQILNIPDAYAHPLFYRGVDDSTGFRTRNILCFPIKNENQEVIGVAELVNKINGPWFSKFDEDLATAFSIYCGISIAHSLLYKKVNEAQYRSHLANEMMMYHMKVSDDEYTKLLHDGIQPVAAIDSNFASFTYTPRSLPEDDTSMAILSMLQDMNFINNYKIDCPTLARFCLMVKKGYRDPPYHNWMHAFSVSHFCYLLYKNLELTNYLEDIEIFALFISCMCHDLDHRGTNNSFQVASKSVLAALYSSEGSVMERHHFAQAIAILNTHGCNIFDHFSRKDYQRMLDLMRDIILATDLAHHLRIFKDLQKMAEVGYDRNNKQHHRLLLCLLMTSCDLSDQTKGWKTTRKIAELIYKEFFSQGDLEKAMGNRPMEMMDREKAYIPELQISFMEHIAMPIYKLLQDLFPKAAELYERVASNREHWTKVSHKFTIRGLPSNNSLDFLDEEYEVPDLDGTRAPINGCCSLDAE

| SMILES | IC50 [1, 4] | IC50 [2, 5] | IC50 ([2]; -log IC50 expressed in mol/L, rPDE10A2, 60 nM cAMP, read-out: PIC50 PDE10 (converted)) | PO Dose at Max Effect [3] | PO Max effect (cumulative agitation score over 60 min) [3] | PO LAD (lowest active dose) [3] | SC Dose at max effect [3] | SC Max effect (cumulative agitation score over 60 min) [3] | SC LAD (lowest active dose) [3] | IC50 [1] | IC50 [2] |
| --- | --- | --- | --- | --- | --- | --- | --- | --- | --- | --- | --- |
| Cc1nc2ccc(C(O)C(F)(F)F)cc2n2c(-c3ccccc3Cl)nnc12 (centres unmarked) [Compound B-21, 1-[1-(2-Chlorophenyl)-4-methyl[1,2,4]triazolo[4,3-a]quinoxalin-8-yl]-2,2,2-trifluoroethanol] | 6.46 nM | 41.7 nM |  | 10 mg/kg | 24 | > 10 mg/kg |  |  |  |  |  |
| COc1cc(NC(=O)c2ccc3nc(C)c4nnc(-c5ccccc5Cl)n4c3c2)cc(OC)c1OC [Compound B-49] | 2.34 nM | 77.6 nM |  | 10 mg/kg | 24 | > 10 mg/kg |  |  |  |  |  |
| Cc1nc2ccc(CNC3CCOCC3)cc2n2c(-c3ccccc3Cl)nnc12 [Compound B-76] | 7.08 nM | 45.7 nM |  |  |  |  | 10 mg/kg | 16 | 10 mg/kg |  |  |
| CCOc1ccc(Cl)c(-c2nnc3c(C)nc4ccc(CNc5cccnc5)cc4n23)c1 [Compound B-103] | 18.6 nM | 178 nM |  |  |  |  | 10 mg/kg | 21 | > 10 mg/kg |  |  |
| Cc1nc2ccc(C(=O)NCc3ccccn3)cc2n2c(-c3cc(F)ccc3Cl)nnc12 [Compound B-39] | 1 nM | 24 nM |  | 10 mg/kg | 21 | > 10 mg/kg |  |  |  |  |  |
| Cc1nc2ccc(OCCN3CCOCC3)cc2n2c(-c3ccccc3Cl)nnc12 [Compound B-113] | 22.9 nM | 33.1 nM |  |  |  |  | 10 mg/kg | 8 | 10 mg/kg |  |  |
| Cc1nc2ccc(CN3CCOC(CCF)C3)cc2n2c(-c3ccccc3Cl)nnc12 (centres unmarked) [Compound B-89] | 11.7 nM | 50.1 nM |  |  |  |  | 5 mg/kg | 24 | > 5 mg/kg |  |  |
| Cc1nc2ccc(C(=O)NCc3ccccn3)cc2n2c(-c3cc(Cl)ccc3Cl)nnc12 [Compound B-11, 1-(2,5-Dichlorophenyl)-4-methyl-N-(pyridin-2-ylmethyl)[1,2,4]triazolo[4,3-a]quinoxaline-8-carboxamide] | 1.62 nM | 33.9 nM |  | 10 mg/kg | 19 | > 10 mg/kg |  |  |  |  |  |
| Cc1nc2ccc(C(=O)NCCc3ccccc3)cc2n2c(-c3ccccc3Cl)nnc12 [Compound B-38] | 0.724 nM | 25.1 nM |  | 2.5 mg/kg | 19 | 2.5 mg/kg |  |  |  |  |  |
| Cc1nc2ccc(CN3CCC(F)CC3)cc2n2c(-c3ccccc3Cl)nnc12 [Compound B-61] | 5.5 nM | 20 nM |  |  |  |  | 10 mg/kg | 15 | 10 mg/kg |  |  |
| Cc1nc2ccc(CN3CCOC(CO)C3)cc2n2c(-c3ccccc3Cl)nnc12 (centres unmarked) [Compound B-55] |  |  |  |  |  |  | 10 mg/kg | 22 | > 10 mg/kg | 3.47 nM | 10.7 nM |

The next lines start with results.

| IC50 [1, 4] | IC50 [2, 5] | IC50 ([2]; -log IC50 expressed in mol/L, rPDE10A2, 60 nM cAMP, read-out: PIC50 PDE10 (converted)) | SMILES | PO Dose at Max Effect [3] | PO Max effect (cumulative agitation score over 60 min) [3] | PO LAD (lowest active dose) [3] | SC Dose at max effect [3] | SC Max effect (cumulative agitation score over 60 min) [3] | SC LAD (lowest active dose) [3] | IC50 [1] | IC50 [2] |
| --- | --- | --- | --- | --- | --- | --- | --- | --- | --- | --- | --- |
| 8.32 nM | 24.5 nM |  | Cc1nc2ccc(OC(F)(F)F)cc2n2c(-c3ccccc3Cl)nnc12 [Compound B-4a, 1-(2-Chlorophenyl)-4-methyl-8-(trifluoromethoxy)[1,2,4]triazolo[4,3-a]quinoxaline] | 10 mg/kg | 21 | > 10 mg/kg |  |  |  |  |  |
| 2.51 nM |  | 155 nM | CCNC(=O)c1ccc2nc(C)c3nnc(-c4ccccc4F)n3c2c1 [Compound B-51] | 10 mg/kg | 21 | > 10 mg/kg |  |  |  |  |  |
| 1.51 nM | 29.5 nM |  | Cc1nc2ccc(C(=O)NCCO)cc2n2c(-c3ccccc3Cl)nnc12 [Compound B-42] | 10 mg/kg | 22 | > 10 mg/kg |  |  |  |  |  |
| 1.78 nM | 35.5 nM |  | Cc1ccc(Cl)c(-c2nnc3c(C)nc4ccc(C(=O)NCc5ccccn5)cc4n23)c1 [Compound B-44] | 10 mg/kg | 21 | > 10 mg/kg |  |  |  |  |  |
| 14.1 nM | 77.6 nM |  | COc1ccc(Cl)c(-c2nnc3c(C)nc4ccc(CN5CCC(F)CC5)cc4n23)c1 [Compound B-97] |  |  |  | 10 mg/kg | 19 | 10 mg/kg |  |  |
| 2 nM | 45.7 nM |  | Cc1nc2ccc(O)cc2n2c(-c3ccccc3Cl)nnc12 [Compound B-13, 1-(2-Chlorophenyl)-4-methyl[1,2,4]triazolo[4,3-a]quinoxalin-8-ol] | 10 mg/kg | 19 | 10 mg/kg |  |  |  |  |  |
| 1.95 nM | 20 nM |  | CNC(=O)c1ccc2nc(C)c3nnc(-c4ccccc4Cl)n3c2c1 [Compound B-46] | 10 mg/kg | 21 | > 10 mg/kg |  |  |  |  |  |
| 0.251 nM | 6.61 nM |  | Cc1nc2ccc(C(=O)NCc3cccc(F)n3)cc2n2c(-c3ccccc3Cl)nnc12 [Compound B-32] | 10 mg/kg | 22 | > 10 mg/kg |  |  |  |  |  |
| 25.7 nM | 117 nM |  | Cc1ncccc1-c1nnc2c(C)nc3ccc(CN4CCOCC4)cc3n12 [Compound B-118] |  |  |  | 10 mg/kg | 17 | 10 mg/kg |  |  |
| 97.7 nM | 174 nM |  | Cc1ncccc1-c1nnc2c(C)nc3ccc(OC(F)(F)F)cc3n12 [Compound B-168] | 10 mg/kg | 16 | 10 mg/kg |  |  |  |  |  |
| 7.59 nM | 25.1 nM |  | COc1ccc2nc(C)c3nnc(-c4ccccc4Cl)n3c2c1 [Compound B-5, 1-(2-Chlorophenyl)-8-methoxy-4-methyl[1,2,4]triazolo[4,3-a]quinoxaline] | 10 mg/kg | 21 | > 10 mg/kg |  |  |  |  |  |
| 7.41 nM | 77.6 nM |  | Cc1nc2ccc(C(=O)NCCCc3ccccc3)cc2n2c(-c3ccccc3)nnc12 [Compound B-77] | 2.5 mg/kg | 21 | > 2.5 mg/kg |  |  |  |  |  |
| 5.25 nM | 26.9 nM |  | Cc1nc2ccc(N3CCN(C)CC3)cc2n2c(-c3ccccc3Cl)nnc12 [Compound B-16, 1-(2-Chlorophenyl)-4-methyl-8-(4-methylpiperazin-1-yl)[1,2,4]triazolo[4,3-a]quinoxaline] |  |  |  | 2.5 mg/kg | 21 | > 2.5 mg/kg |  |  |
| 7.59 nM | 93.3 nM |  | CCNC(=O)c1ccc2nc(C)c3nnc(-c4ccccc4OC)n3c2c1 [Compound B-78] | 10 mg/kg | 21 | > 10 mg/kg |  |  |  |  |  |
